# Active and inactive are the calls of the source. No cut-off for these calls is given here.
# Legend:
# [1] = Inhibition of rabbit skeletal muscle myosin 2 ATPase in presence of F-actin after 1 hr; parameters: species or system Oryctolagus cuniculus
# [2] = species: Oryctolagus cuniculus; test: Inhibition of rabbit skeletal muscle myosin 2 ATPase in presence of F-actin at 100 uM after 1 hr
Compound,IC50 [1],inhibition [2]
Cc1ccc2c(c1)C(=O)[C@]1(O)C[C@H](CO)N(c3ccccc3)C1=N2 (racemic),75 µM,
Cc1ccc2c(c1)C(=O)[C@]1(O)C[C@@H](CO)N(c3ccccc3)C1=N2 (racemic),,inactive
Cc1ccc2c(c1)C(=O)[C@]1(O)CCN(c3ccccc3)C1=N2,0.95 µM,
C=CCOCC1CC2(O)C(=O)c3cc(C)ccc3N=C2N1c1ccccc1 (mixture of isomers),,inactive
